Drawing on ChEMBL document CHEMBL4373715, “Discovery and Biological Evaluations of Halogenated 2,4-Diphenyl Indeno[1,2-b]pyridinol Derivatives as Potent Topoisomerase IIα-Targeted Chemotherapeutic Agents for Breast Cancer” (J Med Chem, 2019), this text covers IC50 and inhibition for 24 compounds.

For assay [1], the system named is DU-145. Description: Antiproliferative activity against human DU145 cells measured after 72 hrs by EZ-Cytox assay. The conditions noted are these: DU-145, 72 h. It counts as functional, cell-based.
Assay [2] concerns T47D. In words: Antiproliferative activity against human T47D cells measured after 72 hrs by EZ-Cytox assay. It counts as functional, cell-based.
Assay [3] deals with HCT-15. Description: Antiproliferative activity against human HCT15 cells measured after 72 hrs by EZ-Cytox assay. It counts as functional, cell-based. Particulars: HCT-15, 72 h.
Assay [4] has as its system HeLa. In words: Antiproliferative activity against human HeLa cells measured after 72 hrs by EZ-Cytox assay. The class given is functional, cell-based.
For assay [5], the target named is DNA topoisomerase 2-alpha (Homo sapiens) (UniProt P11388). In words: Inhibition of recombinant human topoisomerase 2alpha-mediated relaxation of supercoiled pBR322 DNA at 100 uM measured after 30 mins by ethidium bromide staining based agarose gel electrophoresis relative to control.
In assay [6] the target is T1, DNA topoisomerase 1 (Homo sapiens) (UniProt P11387).
T1 sequence (whole entry): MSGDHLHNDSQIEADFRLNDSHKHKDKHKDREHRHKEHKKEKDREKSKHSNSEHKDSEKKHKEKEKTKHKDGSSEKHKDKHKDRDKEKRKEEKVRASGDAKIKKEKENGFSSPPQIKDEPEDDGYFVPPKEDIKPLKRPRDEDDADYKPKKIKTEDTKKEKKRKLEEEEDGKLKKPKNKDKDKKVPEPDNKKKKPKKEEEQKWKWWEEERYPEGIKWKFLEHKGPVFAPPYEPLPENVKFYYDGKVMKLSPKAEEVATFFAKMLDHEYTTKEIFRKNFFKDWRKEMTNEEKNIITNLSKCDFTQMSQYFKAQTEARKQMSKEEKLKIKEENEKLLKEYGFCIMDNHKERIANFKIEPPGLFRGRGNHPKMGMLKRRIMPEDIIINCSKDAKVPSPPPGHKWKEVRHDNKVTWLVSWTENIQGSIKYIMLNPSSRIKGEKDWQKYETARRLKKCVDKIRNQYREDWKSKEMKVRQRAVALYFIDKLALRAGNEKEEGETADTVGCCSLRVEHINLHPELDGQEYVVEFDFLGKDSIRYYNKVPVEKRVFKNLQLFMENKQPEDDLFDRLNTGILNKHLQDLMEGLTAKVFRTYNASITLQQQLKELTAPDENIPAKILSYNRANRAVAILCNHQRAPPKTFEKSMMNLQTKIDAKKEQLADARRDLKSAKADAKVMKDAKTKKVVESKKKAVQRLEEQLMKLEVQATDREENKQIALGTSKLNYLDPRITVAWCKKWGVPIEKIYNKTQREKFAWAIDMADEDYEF
In words: Inhibition of recombinant human topoisomerase 1-mediated relaxation of supercoiled pBR322 DNA at 100 uM measured after 30 mins by ethidium bromide staining based agarose gel electrophoresis relative to control.

Sequence of DNA topoisomerase 2-alpha (Homo sapiens) (P11388 whole entry): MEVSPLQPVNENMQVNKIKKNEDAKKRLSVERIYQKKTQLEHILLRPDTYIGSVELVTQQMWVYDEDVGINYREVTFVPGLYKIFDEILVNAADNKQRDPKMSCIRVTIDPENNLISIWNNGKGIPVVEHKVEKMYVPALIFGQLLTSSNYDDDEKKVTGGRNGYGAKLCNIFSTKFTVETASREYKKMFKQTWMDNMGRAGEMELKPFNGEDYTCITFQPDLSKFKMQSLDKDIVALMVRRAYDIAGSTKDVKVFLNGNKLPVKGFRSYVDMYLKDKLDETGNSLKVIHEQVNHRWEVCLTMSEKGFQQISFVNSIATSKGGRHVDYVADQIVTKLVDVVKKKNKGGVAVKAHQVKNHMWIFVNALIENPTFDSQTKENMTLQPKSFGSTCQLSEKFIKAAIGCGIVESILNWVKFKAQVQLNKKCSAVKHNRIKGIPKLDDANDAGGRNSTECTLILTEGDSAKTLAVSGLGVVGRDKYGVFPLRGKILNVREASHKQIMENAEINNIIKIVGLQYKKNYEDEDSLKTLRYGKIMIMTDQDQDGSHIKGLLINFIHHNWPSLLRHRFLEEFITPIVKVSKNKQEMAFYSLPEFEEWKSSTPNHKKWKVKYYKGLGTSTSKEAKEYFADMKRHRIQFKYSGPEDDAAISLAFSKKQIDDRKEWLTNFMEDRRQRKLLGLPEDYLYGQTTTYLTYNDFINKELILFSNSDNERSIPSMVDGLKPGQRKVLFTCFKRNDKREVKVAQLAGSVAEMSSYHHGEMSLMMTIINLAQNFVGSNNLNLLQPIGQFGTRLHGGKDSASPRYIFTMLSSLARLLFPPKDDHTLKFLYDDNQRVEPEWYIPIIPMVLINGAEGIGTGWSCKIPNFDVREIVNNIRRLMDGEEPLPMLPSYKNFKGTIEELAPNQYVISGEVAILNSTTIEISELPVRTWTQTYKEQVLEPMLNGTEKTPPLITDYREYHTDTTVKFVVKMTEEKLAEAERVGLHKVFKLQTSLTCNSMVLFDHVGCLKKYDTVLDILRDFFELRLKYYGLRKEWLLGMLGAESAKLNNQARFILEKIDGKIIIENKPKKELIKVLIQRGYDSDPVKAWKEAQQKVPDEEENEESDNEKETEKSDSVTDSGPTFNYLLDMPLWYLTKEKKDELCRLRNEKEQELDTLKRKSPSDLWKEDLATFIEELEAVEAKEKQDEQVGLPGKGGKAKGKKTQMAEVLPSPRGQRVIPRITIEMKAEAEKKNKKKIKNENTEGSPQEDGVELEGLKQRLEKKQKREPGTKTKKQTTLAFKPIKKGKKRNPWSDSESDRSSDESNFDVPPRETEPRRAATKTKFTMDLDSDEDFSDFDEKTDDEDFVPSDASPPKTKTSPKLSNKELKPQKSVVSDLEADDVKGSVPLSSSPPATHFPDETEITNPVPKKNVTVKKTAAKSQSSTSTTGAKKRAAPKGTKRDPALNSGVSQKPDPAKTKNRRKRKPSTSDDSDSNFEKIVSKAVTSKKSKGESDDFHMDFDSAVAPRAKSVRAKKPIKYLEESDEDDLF

One may read the IC50 as the concentration at which inhibition is half-maximal. A high value points to a need for much substance. In general, inhibition refers to how much of the control response was suppressed. Take `Oc1ccc(-c2cc(-c3cccc(F)c3)nc3c2Cc2cc(O)ccc2-3)cc1`: the IC50 in assay [1] turned out to be 1.44 µM; in assay [2] it was 1.34 µM; in assay [3] it was 3.57 µM; in assay [4], 6.76 µM. The inhibition in assay [5] was found to be 4.5%; in assay [6], 8.7%.

For the compound `Oc1ccccc1-c1cc(-c2ccccc2F)nc2c1Cc1c(O)cccc1-2`, the IC50 came to 2.71 µM in assay [1], 1.77 µM in assay [2], 3.39 µM in assay [3] and 4.18 µM in assay [4]. In addition, the inhibition turned out to be 24.1% in assay [5] and 0% in assay [6].

`Oc1ccc(-c2cc(-c3cccc(C(F)(F)F)c3)nc3c2Cc2cccc(O)c2-3)cc1`: the half-inhibitory concentration (IC50) in assay [1] is 44.1 µM; in assay [2], 9.57 µM; in assay [3] it was 4.77 µM; in assay [4], 16.8 µM. Also, the inhibition came out at 12.9% in assay [5] and 2.3% in assay [6].

For the compound `Oc1ccccc1-c1cc(-c2ccccc2)c2c(n1)-c1cccc(O)c1C2`, the IC50 is 2.49 µM in assay [1], 6.43 µM in assay [2], greater than 50 µM in assay [3] and 1.83 µM in assay [4]. Moreover, the inhibition in assay [5] was determined as 1.1%; in assay [6], 6.6%.

Turning to `Oc1ccc(-c2cc(-c3cccc(F)c3)nc3c2Cc2ccc(O)cc2-3)cc1`, the IC50 was determined as 4.83 µM in assay [1], 0.7 µM in assay [2], 4.49 µM in assay [3] and 8.63 µM in assay [4]. Moreover, the inhibition turned out to be 6.2% in assay [5] and 3% in assay [6].

Regarding `Oc1ccc(-c2cc(-c3ccc(F)cc3)nc3c2Cc2cc(O)ccc2-3)cc1`, the IC50 in assay [1] stood at 1.59 µM; in assay [2], 1.85 µM; in assay [3], 4.4 µM; in assay [4], 3.84 µM. The inhibition worked out at 17.1% in assay [5] and 8% in assay [6].

In the case of `Oc1ccc2c(c1)Cc1c(-c3ccccc3O)cc(-c3ccccc3F)nc1-2`, the IC50 was 3.82 µM in assay [1], 0.7 µM in assay [2], 3.37 µM in assay [3] and 4.94 µM in assay [4]. Besides, the inhibition was found to be 13.4% in assay [5] and 0% in assay [6].

Turning to `Oc1ccc2c(c1)-c1nc(-c3ccccc3O)cc(-c3ccccc3)c1C2`, the IC50 is 1.87 µM in assay [1], greater than 50 µM in assay [2], greater than 50 µM in assay [3] and greater than 50 µM in assay [4]. Moreover, the inhibition in assay [5] amounted to 2.8%; in assay [6], 0%.

For `Oc1ccc(-c2cc(-c3ccccc3F)nc3c2Cc2ccc(O)cc2-3)cc1`, the IC50 is 14.1 µM in assay [1], 29.2 µM in assay [2], greater than 50 µM in assay [3] and greater than 50 µM in assay [4]. Further, the figures for the inhibition in assay [5] and in assay [6] were 6.4% and 3.3%, respectively.

With `Oc1ccc2c(c1)Cc1c(-c3ccccc3O)cc(-c3cccc(F)c3)nc1-2`, the IC50 worked out at 3.13 µM in assay [1], 0.86 µM in assay [2], 4.23 µM in assay [3] and 2.43 µM in assay [4]. Also, the figures for the inhibition in assay [5] and in assay [6] were 28% and 0%, respectively.

`Oc1cccc(-c2cc(-c3ccccc3F)nc3c2Cc2cccc(O)c2-3)c1`: the IC50 in assay [1] is 1.88 µM; in assay [2], 0.83 µM; in assay [3] it was 8.33 µM; in assay [4], 12.1 µM. For the same compound, the inhibition in assay [5] was found to be 8.7%; in assay [6], 4%.

In the case of `Oc1cccc(-c2cc(-c3ccccc3F)nc3c2Cc2c(O)cccc2-3)c1`, the IC50 is 2.03 µM in assay [1], 2.71 µM in assay [2], 4.98 µM in assay [3] and 6.75 µM in assay [4]. Moreover, the inhibition is 22.4% in assay [5] and 9.7% in assay [6].

`Oc1ccc2c(c1)Cc1c(-c3ccccc3)cc(-c3ccccc3O)nc1-2`: the IC50 is 1.62 µM in assay [1], greater than 50 µM in assay [2], greater than 50 µM in assay [3] and greater than 50 µM in assay [4]. In addition, the inhibition stood at 19% in assay [5] and 2% in assay [6].

Turning to `Oc1ccc2c(c1)-c1nc(-c3ccccc3F)cc(-c3ccccc3O)c1C2`, the IC50 in assay [1] stood at 4.07 µM; in assay [2] it was 0.61 µM; in assay [3] it was 2.98 µM; in assay [4], 4.36 µM. Moreover, the inhibition in assay [5] was found to be 27%; in assay [6], 0%.

As for `Oc1cccc(-c2cc(-c3ccc(F)cc3)nc3c2Cc2c(O)cccc2-3)c1`, the concentration for half-maximal inhibition (IC50) in assay [1] was 0.56 µM; in assay [2], 1.72 µM; in assay [3], 2.68 µM; in assay [4], 6.71 µM. The inhibition in assay [5] was 27.8%; in assay [6], 26.2%.

With `Oc1cccc(-c2cc(-c3ccc(C(F)(F)F)cc3)nc3c2Cc2c(O)cccc2-3)c1`, the IC50 stood at 5.01 µM in assay [1], 6.15 µM in assay [2], 6.98 µM in assay [3] and 6.3 µM in assay [4]. The inhibition was 10.9% in assay [5] and 0.7% in assay [6].

Regarding `Oc1cccc(-c2cc(-c3ccccc3F)nc3c2Cc2ccc(O)cc2-3)c1`, the IC50 in assay [1] amounted to 0.4 µM; in assay [2] it was 2.97 µM; in assay [3] it was 2.96 µM; in assay [4], 3.74 µM. Further, the inhibition in assay [5] was 28.1%; in assay [6], 16.3%.

In the case of `Oc1ccc(-c2cc(-c3ccccc3)c3c(n2)-c2cccc(O)c2C3)cc1`, the IC50 was 0.37 µM in assay [1], 6.23 µM in assay [2], 1.02 µM in assay [3] and 5.74 µM in assay [4]. Besides, the inhibition in assay [5] worked out at 4.4%; in assay [6], 5.3%.

Turning to `Oc1cccc(-c2cc(-c3ccccc3)c3c(n2)-c2cccc(O)c2C3)c1`, the IC50 in assay [1] worked out at 0.52 µM; in assay [2], 3.92 µM; in assay [3], 1.58 µM; in assay [4] it was 6.2 µM. Also, the inhibition in assay [5] is 4.5%; in assay [6], 0.4%.

As for `Oc1cccc(-c2cc(-c3ccccc3)nc3c2Cc2ccc(O)cc2-3)c1`, the IC50 worked out at 1.57 µM in assay [1], 0.84 µM in assay [2], 1.37 µM in assay [3] and 1.38 µM in assay [4]. The values for the inhibition in assay [5] and in assay [6] were 1.2% and 0.5%, respectively.

Turning to `Oc1ccc(-c2cc(-c3ccccc3)nc3c2Cc2ccc(O)cc2-3)cc1`, the IC50 in assay [1] is 1.38 µM; in assay [2], 2.99 µM; in assay [3], greater than 50 µM; in assay [4] it was greater than 50 µM. For the same compound, the inhibition came to 2.4% in assay [5] and 6% in assay [6].

For `Oc1cccc(-c2cc(-c3ccccc3)nc3c2Cc2cccc(O)c2-3)c1`, the IC50 in assay [1] came to 0.72 µM; in assay [2], 2.01 µM; in assay [3], 1.48 µM; in assay [4] it was 2.03 µM. Moreover, the inhibition in assay [5] came out at 6.3%; in assay [6] it was 1.6%.

Regarding `Oc1ccc(-c2cc(-c3ccccc3)nc3c2Cc2c(O)cccc2-3)cc1`, the IC50 in assay [1] was 1.28 µM; in assay [2], 2.89 µM; in assay [3] it was 2.78 µM; in assay [4] it was 1.94 µM. The inhibition in assay [5] worked out at 1.5%; in assay [6], 4.4%.

`Oc1cccc(-c2cc(-c3ccc(F)cc3)nc3c2Cc2cccc(O)c2-3)c1`: the IC50 is 3.3 µM in assay [1], 2.24 µM in assay [2], 4.04 µM in assay [3] and 8.81 µM in assay [4]. Further, the inhibition in assay [5] amounted to 27.3%; in assay [6], 2.3%.
